Tested on in the first data set: not given
Details: not given
Sequence of 5-HT7 receptor (P34969 whole entry): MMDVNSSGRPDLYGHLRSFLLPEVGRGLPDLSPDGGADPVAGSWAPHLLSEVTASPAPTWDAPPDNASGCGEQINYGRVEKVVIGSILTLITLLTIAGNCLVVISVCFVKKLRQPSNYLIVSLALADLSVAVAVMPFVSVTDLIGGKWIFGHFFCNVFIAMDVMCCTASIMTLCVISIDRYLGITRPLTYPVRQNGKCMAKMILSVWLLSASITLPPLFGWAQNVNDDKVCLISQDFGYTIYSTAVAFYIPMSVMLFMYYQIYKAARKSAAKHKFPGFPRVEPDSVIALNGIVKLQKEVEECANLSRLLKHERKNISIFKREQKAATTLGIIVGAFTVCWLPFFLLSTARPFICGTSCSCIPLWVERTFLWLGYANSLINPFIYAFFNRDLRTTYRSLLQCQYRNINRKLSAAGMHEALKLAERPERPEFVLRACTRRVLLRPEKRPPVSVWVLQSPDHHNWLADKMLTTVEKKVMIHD
`Fc1ccc(C2(CCCN3Cc4ccccc4C3)OCCO2)cc1.O=C(O)/C=C\C(=O)O` came in with a melting point of 141 to 142 °C.

`O=C(CCCN1CCc2ccccc2C1)c1ccc(F)cc1.O=C(O)/C=C\C(=O)O` returned a melting point of 129 to 130 °C.

For the molecule `O=C(CCCN1Cc2cc3ccccc3cc2C1)c1ccc(F)cc1.O=C(O)/C=C\C(=O)O`, the melting point was in the range of 157 to 158 °C.

As for `O=C(CCCN1CCc2ccccc2C1)c1ccncc1.O=C(O)/C=C\C(=O)O`, the melting point was 108 to 109 °C.

`O=C(CCCN1Cc2cccc3cccc(c23)C1)c1ccc(F)cc1.O=C(O)/C=C\C(=O)O` came in with a melting point of 151 to 155 °C.

The molecule `O=C(CCCN1CCc2ccccc2C1)c1cccs1.O=C(O)/C=C\C(=O)O` yielded a melting point of 154 to 155 °C.

`COc1cc2c(cc1OC)CN(CCCC(=O)c1ccc(F)cc1)CC2.O=C(O)/C=C\C(=O)O` displayed a melting point of 144 to 146 °C.

`O=C(O)/C=C\C(=O)O.O=c1[nH]c2ccccc2n1CCCN1CCc2ccccc2C1` gave a melting point of 153 to 154 °C.

As for `O=C(O)/C=C\C(=O)O.c1ccc(-c2cc(CN3CCc4ccccc4C3)on2)cc1`, the melting point was 190 to 192 °C.

As to `Fc1ccc(OCCCN2Cc3ccccc3C2)cc1.O=C(O)/C=C\C(=O)O`, the melting point lay within 115 to 117 °C.

As to `Cl.Fc1ccc(SCCCN2CCc3ccccc3C2)cc1`, the melting point was 171 to 173 °C.

The molecule `Cl.Fc1ccc(SCCCN2Cc3ccccc3C2)cc1` registered a melting point of 125 to 126 °C.

`O=C(O)/C=C\C(=O)O.O=S(=O)(CCCN1Cc2ccccc2C1)c1ccc(F)cc1` yielded a melting point of 151 to 152 °C.

Consider `Cl.O=S(=O)(CCCN1CCc2ccccc2C1)c1ccc(F)cc1`, for which the melting point lay within 212 to 215 °C.

Turning to `Cc1ccc(C2(CCCN3Cc4ccccc4C3)OCCO2)cc1.O=C(O)/C=C\C(=O)O`, the melting point was 159 to 161 °C (dec.).

Take `Cl.O=S(=O)(c1ccc(F)cc1)N1CCC(N2CCc3ccccc3C2)CC1`: the melting point is greater than 240 °C.

Molecule `Fc1ccc(C2(CCCN3CCc4ccccc4C3)OCCO2)cc1.O=C(O)/C=C\C(=O)O` gave a melting point of 160 to 162 °C.

`O=C(O)/C=C\C(=O)O.OC(CCCN1Cc2ccccc2C1)c1ccc(F)cc1` (stereo not drawn) displayed a melting point of 113 to 114 °C.

Take `O=C(CCCN1CC[C@@H]2CCCC[C@H]2C1)c1ccc(F)cc1.O=C(O)/C=C\C(=O)O` (racemic): the melting point was 157 to 158 °C.

In turn, `Fc1ccc(C2=NOC(CN3CCc4ccccc4C3)C2)cc1.O=C(O)/C=C\C(=O)O` (racemic) had a melting point of 153 to 155 °C.

A further data set has as its target 5-HT7 receptor (Homo sapiens, UniProt P34969). To be noted: background statement; profile consistent across species; cited from earlier work.
Take 5-HT [Example 5-HT]: the 5-HT7 receptor affinity entry is listed as “high 5-HT7 receptor affinity”.

In the case of `O=C1CC2(CCCC2)CC(=O)N1CCCCN1CCN(c2ncccn2)CC1` [buspirone], the 5-HT7 receptor affinity entry is given as “low affinity”.

Turning to `Cc1nc2sccn2c(=O)c1CCN1CCC(=C(c2ccc(F)cc2)c2ccc(F)cc2)CC1` [ritanserin], the 5-HT7 receptor affinity result is reported as “moderate affinity”.

Regarding `CNS(=O)(=O)Cc1ccc2[nH]cc(CCN(C)C)c2c1` [sumatriptan], the 5-HT7 receptor affinity entry is given as “low affinity”.

The data set is the same for the next values; noted with them: cited from earlier work.
As for `COc1ccc2[nH]cc(CCN)c2c1` [Example 5-MeOT, 5-MeOT], the 5-HT7 receptor affinity entry is on record as “high 5-HT7 receptor affinity”.

Turning to `CCCN(CCC)C1CCc2cccc(O)c2C1` (stereo not drawn) [Example 8-OHDPAT, 8-OHDPAT], the 5-HT7 receptor affinity entry is given as “moderate affinity”.

Consider `CC(C)NCC(O)COc1cccc2[nH]ccc12` (stereo not drawn) [pindolol], for which the 5-HT7 receptor affinity result was “low affinity”.

(Values after patent US6486173B2, “5-HT7 receptor antagonists” (Bristol-Myers Squibb Pharma Company, priority 1998, dated 2002).)
